Reference: PubChem BioAssay (NCI)
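Following 48 hours of exposure in 96-well plates, responses at five concentrations were used to interpolate endpoints linearly. At the TGI there is no net growth.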

How the values were obtained:
Assay in all cases: NCI-60 cell line screen, 48 h
CCRF-CEM leukemia = tested on: CCRF-CEM leukemia
MALME-3M melanoma = tested on: MALME-3M melanoma
SK-OV-3 ovarian = tested on: SK-OV-3 ovarian
MCF7 breast = tested on: MCF7 breast
786-0 renal = tested on: 786-0 renal
SW-620 colon = tested on: SW-620 colon
MDA-MB-231 breast = tested on: MDA-MB-231 breast
SR leukemia = tested on: SR leukemia
MOLT-4 leukemia = tested on: MOLT-4 leukemia
T-47D breast = tested on: T-47D breast
SF-295 CNS = tested on: SF-295 CNS
TK-10 renal = tested on: TK-10 renal
NCI-H23 lung = tested on: NCI-H23 lung
IGROV1 ovarian = tested on: IGROV1 ovarian
SN12C renal = tested on: SN12C renal
KM12 colon = tested on: KM12 colon
SK-MEL-5 melanoma = tested on: SK-MEL-5 melanoma
SNB-75 CNS = tested on: SNB-75 CNS
A549 NSCLC = tested on: A549 NSCLC
HOP-62 NSCLC = tested on: HOP-62 NSCLC
RPMI-8226 leukemia = tested on: RPMI-8226 leukemia
PC-3 prostate = tested on: PC-3 prostate
UACC-62 melanoma = tested on: UACC-62 melanoma
M14 melanoma = tested on: M14 melanoma
EKVX NSCLC = tested on: EKVX NSCLC
HCT-15 colon = tested on: HCT-15 colon
RXF 393 renal = tested on: RXF 393 renal
SK-MEL-28 melanoma = tested on: SK-MEL-28 melanoma
OVCAR-8 ovarian = tested on: OVCAR-8 ovarian
MDA-N = tested on: MDA-N
SF-268 CNS = tested on: SF-268 CNS
CAKI-1 renal = tested on: CAKI-1 renal
HCC-2998 colon = tested on: HCC-2998 colon
U251 CNS = tested on: U251 CNS
NCI-H460 lung = tested on: NCI-H460 lung
A498 renal = tested on: A498 renal
HOP-92 NSCLC = tested on: HOP-92 NSCLC
NCI/ADR-RES ovarian = tested on: NCI/ADR-RES ovarian
ACHN renal = tested on: ACHN renal
HS 578T breast = tested on: HS 578T breast
HL-60(TB) leukemia = tested on: HL-60(TB) leukemia
COLO 205 colon = tested on: COLO 205 colon
LOX IMVI melanoma = tested on: LOX IMVI melanoma
OVCAR-4 ovarian = tested on: OVCAR-4 ovarian
MDA-MB-435 = tested on: MDA-MB-435
SNB-19 CNS = tested on: SNB-19 CNS
HCT-116 colon = tested on: HCT-116 colon
SF-539 CNS = tested on: SF-539 CNS
HT29 colon = tested on: HT29 colon
K-562 leukemia = tested on: K-562 leukemia
OVCAR-3 ovarian = tested on: OVCAR-3 ovarian

Measured: TGI

CC1OC(c2ccccc2)=CC(OCc2ccccc2)[C@H]1OCc1ccccc1 (some centres undefined)
> 10 µM: CCRF-CEM leukemia | MALME-3M melanoma | SK-OV-3 ovarian | MCF7 breast | 786-0 renal | SW-620 colon | MDA-MB-231 breast | SR leukemia | MOLT-4 leukemia | T-47D breast | SF-295 CNS | TK-10 renal | NCI-H23 lung | IGROV1 ovarian | SN12C renal | KM12 colon | SK-MEL-5 melanoma | SNB-75 CNS | A549 NSCLC | HOP-62 NSCLC | RPMI-8226 leukemia | PC-3 prostate | UACC-62 melanoma | M14 melanoma | EKVX NSCLC | HCT-15 colon | RXF 393 renal | SK-MEL-28 melanoma | OVCAR-8 ovarian | MDA-N | SF-268 CNS | CAKI-1 renal | HCC-2998 colon

CC(C)N1CSC(=S)N(Cc2ccccc2)C1
7.44 µM: MDA-N
> 10 µM: CCRF-CEM leukemia | SK-OV-3 ovarian | U251 CNS | MCF7 breast | SW-620 colon | T-47D breast | SF-295 CNS | TK-10 renal | NCI-H23 lung | IGROV1 ovarian | SN12C renal | KM12 colon | SK-MEL-5 melanoma | SNB-75 CNS | NCI-H460 lung | A549 NSCLC | HOP-62 NSCLC | A498 renal | NCI/ADR-RES ovarian | ACHN renal | RPMI-8226 leukemia | PC-3 prostate | UACC-62 melanoma | EKVX NSCLC | HS 578T breast | COLO 205 colon | HCT-15 colon | LOX IMVI melanoma | OVCAR-4 ovarian | SK-MEL-28 melanoma | MDA-MB-435 | OVCAR-8 ovarian | SNB-19 CNS | HCT-116 colon | SF-268 CNS | K-562 leukemia | HCC-2998 colon | OVCAR-3 ovarian
8.39 µM: HOP-92 NSCLC
6.27 µM: RXF 393 renal
4.81 µM: SR leukemia
3.35 µM: SF-539 CNS
7.43 µM: MOLT-4 leukemia
0.652 µM: HL-60(TB) leukemia
6.04 µM: HT29 colon
